Assay [1] deals with T1, binding of PCK1 to Insig1 (Homo sapiens, UniProt P35558).
T1 sequence (P35558 1-622): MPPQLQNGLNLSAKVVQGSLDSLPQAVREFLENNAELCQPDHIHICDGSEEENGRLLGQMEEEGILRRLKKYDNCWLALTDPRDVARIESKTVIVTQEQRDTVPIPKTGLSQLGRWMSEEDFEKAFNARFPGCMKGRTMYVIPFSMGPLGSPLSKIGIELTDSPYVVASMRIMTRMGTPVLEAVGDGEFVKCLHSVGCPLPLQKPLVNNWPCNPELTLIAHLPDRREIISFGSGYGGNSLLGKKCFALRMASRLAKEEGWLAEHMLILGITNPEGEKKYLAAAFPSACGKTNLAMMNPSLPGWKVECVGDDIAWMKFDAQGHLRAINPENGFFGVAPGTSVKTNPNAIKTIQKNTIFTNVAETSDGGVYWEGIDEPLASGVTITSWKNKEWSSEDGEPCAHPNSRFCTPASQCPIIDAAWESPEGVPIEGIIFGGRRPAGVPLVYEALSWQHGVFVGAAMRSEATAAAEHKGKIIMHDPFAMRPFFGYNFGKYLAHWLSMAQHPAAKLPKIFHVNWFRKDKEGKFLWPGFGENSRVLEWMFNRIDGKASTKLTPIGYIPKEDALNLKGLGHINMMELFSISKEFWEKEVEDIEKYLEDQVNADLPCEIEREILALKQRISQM
Kind of assay: Immunoprecipitation of IGF1-induced PCK1-Insig1 binding, Hep3B. Details: expressed in transfected cells. Type of assay: cell-based. Particulars: Flag-PCK1-expressing Hep3B cells, peptide 15 μM 1 h before IGF1 100 ng/mL. How it is done:
Cellular proteins were extracted using ice‐cold lysis buffer [50 mM Tris‐HCl (pH 7.5), 150 mM NaCl, 0.1% SDS, 1% Triton X‐100, 1 mM DTT, 0.5 mM EDTA] supplemented with protease inhibitor cocktail (Roche) and phosphatase inhibitors (Bimake). Following lysis, cell extracts were centrifuged at 13400 × g for 15 min at 4 °C to remove cellular debris. The clarified supernatants were then incubated with primary antibodies overnight at 4 °C with gentle rotation. For Flag‐tagged protein immunoprecipitation, Flag M2 magnetic beads (Sigma) were added to the lysate‐antibody mixture and incubated for an additional 4 h at 4 °C. The immunocomplexes were washed three times with lysis buffer under stringent conditions (5 min per wash with rotation). Finally, the precipitated proteins were eluted and analyzed by immunoblotting as previously described.^[ [35] ^]
d) Flag-PCK1-expressing Hep3B cells were pre-treated with Insig1/2 loop 1 peptide (15 μM) for 1 h before IGF1 (100 ng ml⁻¹) stimulation.

The next assay relates to SREBP2. In words: Immunofluorescence of SREBP2 nuclear translocation. Type of assay: cell-based, human. As to conditions: Huh7 cells, peptide 15 μM, IGF1 100 ng/mL 8 h. As for the experimental part: For endogenous SREBP1 and SREBP2 staining, the cells were washed with ice‐cold PBS and fixed with 4% paraformaldehyde in PBS at room temperature (around 20–25 °C) for 15 min. Then, the cells were treated with 0.1% Triton X‐100 for 5 min and blocked in 3% BSA for 1 h at room temperature. The cells were then incubated with primary antibody against SREBP1 (diluted 1:200) or SREBP2 (diluted 1:200) overnight at 4 °C. After incubation with fluorescent‐dye‐conjugated secondary antibody (diluted 1:1000; Thermo Fisher Scientific) in PBS containing 0.05% saponin, 5% goat serum and 0.5% BSA for 1 h at room temperature followed by DAPI (diluted 1:10 000; Thermo Fisher Scientific) staining of the cell nucleus for 10 min. Cells were examined using a laser confocal microscope (Zeiss LSM 900).
a) Following pretreatment with Insig1/2 loop 1 peptide (15 μM) and IGF1 stimulation (100 ng ml⁻¹, 8 h), Huh7 cells were subjected to immunofluorescence analysis (scale bar: 10 μm).

The subject of assay [2] is lipid levels, Ki67, Insig1 pS207/Insig2 pS151. In words: Oil Red O and IHC of tumors from high-fat diet mice. Type of assay: in vivo, nude mice. Particulars: orthotopic Huh7, high-fat diet, IHC; semaglutide 30 nmol/kg ip daily and/or LNP peptide 10 mg/kg iv. As for the experimental part: Figure 5 The Insig1/2 loop 1 peptide in combination with semaglutide treatment induces an additive tumor inhibitor effect. a–c) Huh7 cells were orthotopically injected into the liver of nude mice (n = 7 per group). Treatment groups received intravenous injections of LNP@Insig1/2 loop 1 peptide (10 mg kg^−1, every other day), and/or intraperitoneal injection of Semaglutide (30 nmol kg^−1, daily). (a) Representative optical images of tumors, (b) tumor weights, data are expressed as mean ± SD, statistical significance was determined by one‐way analysis of variance (ANOVA), and (c) survival analysis was performed using Kaplan‐Meier curves. Statistical significance was determined by Log‐rank (Mantel‐Cox) test. d) Cryosections of mouse tumor tissues were prepared, and lipid accumulation was assessed by Oil Red O staining. […] Quantitative analysis of lipid droplet counts (Oil Red O‐positive particles) was performed. Data are expressed as mean ± SD (n = 3). Statistical significance was determined by one‐way analysis of variance (ANOVA). e) Immunohistochemical (IHC) analysis of mouse tumor specimens was performed using the Ki67 antibody. […] Data are expressed as mean ± SD (n = 3). Statistical significance was determined by one‐way analysis of variance (ANOVA). f) Immunohistochemical (IHC) analysis of mouse tumor specimens was performed using the Insig1 pS207/Insig2 pS151 antibody. […]

Consider “RKKRRQRRRLYPCIDSHLGEPHKFKRE [Insig1/2 loop 1 peptide]”, for which the “IGF1-induced binding of PCK1 to Insig1” value in assay [1] is listed as “markedly inhibited”. Moreover, the “IGF1-induced nuclear translocation of SREBP2” value in the assay on SREBP2 is “inhibited”. For the same sequence, the “high-fat diet-enhanced Insig1 S207 and Insig2 S151 phosphorylation in tumors” value in assay [2] was “reduced”.

These data come from publication PMC12677653, “Inhibition of Tumor Lipogenesis and Growth by Peptide‐Based Targeting of SREBP Activation” (Advanced Science, 2025).
